Data published in patent publication US20080119508A1, “Multi-Route Administration Of Immune Response Modifier Compounds” (3M INNOVATIVE PROPERTIES COMPANY, priority 2004, published 2008).

Test system: mouse colon carcinoma-26 cells (MC26) expressing luciferase
Experiment: MC26-luciferase intradermal tumor model, in vivo photon counts (tumor growth index)
Set-up: species or system Balb/c mice
Conditions: combination of topical 5% IRM1 (30 microliters at tumor site) and subcutaneous IRM1 10 mg/kg, compared with single routes and vehicles; day 6 results in FIG. 1
Description: Mice were divided into five groups: topical vehicle, subcutaneous vehicle (SQ vehicle), IRM1 topical (topical IRM1), IRM1 subcutaneous (SQ IRM1), and IRM1 topical and subcutaneous (topical+SQ IRM1). Eighteen hours after injection of the cells, 30 microliters of vehicle or 5% IRM1 topical formulations, described in Table 3, was applied to the tumor site. Six hours later, mice were injected subcutaneously with 10 millograms per kilogram of IRM1 in a 1 milligram per milliliter IRM1, 0.03M citrate buffered saline solution or a vehicle 0.03M citrate buffered saline solution. On days 1, 5, and 6 mice were anesthetized with vaporized 3% isoflurane and in vivo photon counts of luciferin were measured using a Xenogen IVIS imaging system (Alameda, Calif.) following the manufacturer's protocol. The tumor growth index for each treatment group was calculated by dividing each group's day 5 or day 6 tumor photon counts by their day 1 tumor photon counts.

## CCc1nc2c(N)nc3ccccc3c2n1CCCCNS(C)(=O)=O [IRM1, N-[4-(4-amino-2-ethyl-1H-imidazo[4,5-c]quinolin-1-yl)butyl]methanesulfonamide]
  tumor growth index (day 5 or day 6 tumor photon counts divided by day 1 tumor photon counts): surprising benefit
